Results published in patent publication US9289496B2, “Lipid dipeptide and gel” (Nissan Chemical Industries, Ltd., priority 2008, dated 2016).
Residues, ends and D or L forms follow the SMILES beside them.

Key:
[1] = Evaluation of gelation of lipid peptides with pure water; assay type: physicochemical
Protocol: Each of the lipid peptides synthesized in Examples 1, 6, 7, 8, and 10 was placed in a sample tube. Pure water (without metals and ions) was added so that a solution would have a lipid peptide concentration of 0.25 or 0.5% (w/v) (w means mass (g), and v means volume (mL)). The mixture was heated at 90° C. or more to dissolve the lipid peptide, and then allowed to cool.

[2] = Evaluation of gelation of lipid peptides with phosphate buffer; assay type: physicochemical
Protocol: Each of the lipid peptides synthesized in Examples 3 to 10 and Example 14 was placed in a sample tube. Each of three phosphate buffers (PBS) (pH=2.6, 7.4, or 10) was added so that a solution would have a lipid peptide concentration of 0.25 or 0.5% (w/v) (conditions A to F). Then, the mixture was heated at 90° C. or more to dissolve the lipid peptide, and then allowed to cool.

[3] = acidic region (pH=2.6), concentration 0.25%
[4] = acidic region (pH=2.6), concentration 0.5%
[5] = condition A: phosphate buffer pH = 2.6, 0.5% (w/v)
[6] = condition B: phosphate buffer pH = 2.6, 0.25% (w/v)
[7] = condition C: phosphate buffer pH-7.4, 0.5% (w/v)
[8] = condition D: phosphate buffer pH-7.4, 0.25% (w/v)
[9] = condition E: phosphate buffer pH = 10, 0.5% (w/v)

Row | SMILES | Gelation ([1]; lipid peptide 0.25% (w/v)) | Gelation ([1]; lipid peptide 0.50% (w/v)) | Gel formation [2, 3] | Gel formation [2, 4] | Gel formation ([2]; basic region (pH=10), concentration 0.25%) | Gelation [2, 5] | Gelation [2, 6] | Gelation [2, 7] | Gelation [2, 8] | Gelation [2, 9] | Gelation ([2]; condition F: phosphate buffer pH = 10, 0.25% (w/v))
1 | CCCCCCCCCCCC(=O)NCC(=O)N[C@@H](Cc1c[nH]cn1)C(=O)O.O=C(O)C(F)(F)F [Example 6, N-Lauroyl-Gly-His.TFA Salt] (HELM PEPTIDE1{[CCCCCCCCCCCC(=O)[*:2]].G.H}$$$$V2.0) | ◯ | ◯ | formed gels | formed gels | formed a gel | ◯ | ◯ | ◯ | ◯ | ◯ | ◯
2 | CCCCCCCCCCCCCCCCCCCCCC(=O)NCC(=O)N[C@@H](Cc1c[nH]cn1)C(=O)O.O=C(O)C(F)(F)F [Example 7, N-Behenoyl-Gly-His.TFA Salt] | ◯ | ◯ | – | formed gels | – | ◯ | – | ◯ | ◯ | ◯ | –
3 | CCCCCCCCCCCCCC(=O)NCC(=O)N[C@@H](Cc1c[nH]cn1)C(=O)O.O=C(O)C(F)(F)F [Example 8, N-Myristoyl-Gly-His.TFA Salt] (HELM PEPTIDE1{[CCCCCCCCCCCCCC(=O)[*:2]].G.H}$$$$V2.0) | ◯ | ◯ | formed gels | formed gels | – | ◯ | ◯ | ◯ | ◯ | ◯ | –
4 | CCCCCCCCCCCCCCCC(=O)N[C@@H](C)C(=O)N[C@@H](Cc1c[nH]cn1)C(=O)O.O=C(O)C(F)(F)F [Example 10, N-Palmitoyl-Ala-His.TFA salt] (HELM PEPTIDE1{[CCCCCCCCCCCCCCCC(=O)[*:2]].A.H}$$$$V2.0) | ◯ | ◯ | formed gels | formed gels | – | ◯ | ◯ | ◯ | ◯ | ◯ | –
5 | CCCCCCCCCCCCCCCC(=O)N[C@H](C(=O)N[C@@H](Cc1c[nH]cn1)C(=O)O)C(C)C.O=C(O)C(F)(F)F [Example 11, N-Palmitoyl-Val-His.TFA Salt] (HELM PEPTIDE1{[CCCCCCCCCCCCCCCC(=O)[*:2]].V.H}$$$$V2.0) | – | – | – | – | – | – | – | ◯ | ◯ | ◯ | –
6 | CCCCCCCCCCCCCCCC(=O)N[C@@H](Cc1c[nH]cn1)C(=O)NCC(=O)O.O=C(O)C(F)(F)F [Example 14, N-Palmitoyl-His-Gly.TFA Salt] (HELM PEPTIDE1{[CCCCCCCCCCCCCCCC(=O)[*:2]].H.G}$$$$V2.0) | – | – | – | – | – | – | – | ◯ | ◯ | ◯ | –
